According to patent publication US7279575B2, “Pyrimidylpyrrole derivatives active as kinase inhibitors” (Pfizer Italia S.r.l., priority 2003, dated 2007):
Values joined by “and” are separate entries in the source; they are usually repeats but may differ in a detail not shown here. Equal entries are not always repeated. Structures can show the parent of a compound that is named as a salt.

Experiments:
Cdc7/Dbf4 = Cdc7/Dbf4 (Homo sapiens, UniProt O00311); test: Inhibition assay of Cdc7/Dbf4 activity (Dowex resin capture, 33P-ATP, MCM2 substrate); assay type: biochemical; conditions: MCM2 6 μM, ATP 2 μM, Cdc7/Dbf4 2 nM, 60 minutes at room temperature
Cdc7/Dbf4, sequence (O00311 whole entry, species assumed): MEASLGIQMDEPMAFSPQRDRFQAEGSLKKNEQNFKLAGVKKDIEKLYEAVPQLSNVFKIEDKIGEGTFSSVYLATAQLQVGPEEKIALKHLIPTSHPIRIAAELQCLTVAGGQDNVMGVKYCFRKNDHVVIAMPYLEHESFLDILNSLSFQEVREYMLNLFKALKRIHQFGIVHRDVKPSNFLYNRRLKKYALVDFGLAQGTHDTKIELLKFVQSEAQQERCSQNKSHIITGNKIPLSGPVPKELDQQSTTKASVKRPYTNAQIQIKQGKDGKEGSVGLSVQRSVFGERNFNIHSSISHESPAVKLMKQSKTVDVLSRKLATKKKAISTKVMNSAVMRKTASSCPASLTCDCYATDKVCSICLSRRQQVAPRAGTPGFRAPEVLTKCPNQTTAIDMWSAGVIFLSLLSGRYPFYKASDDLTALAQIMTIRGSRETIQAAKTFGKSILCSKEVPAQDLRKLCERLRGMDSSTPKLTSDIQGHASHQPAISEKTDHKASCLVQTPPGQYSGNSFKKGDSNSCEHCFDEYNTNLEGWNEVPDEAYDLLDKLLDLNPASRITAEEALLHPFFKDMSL
Cdc7/Dbf4, sequence (Q9UBU7 whole entry partner, species assumed): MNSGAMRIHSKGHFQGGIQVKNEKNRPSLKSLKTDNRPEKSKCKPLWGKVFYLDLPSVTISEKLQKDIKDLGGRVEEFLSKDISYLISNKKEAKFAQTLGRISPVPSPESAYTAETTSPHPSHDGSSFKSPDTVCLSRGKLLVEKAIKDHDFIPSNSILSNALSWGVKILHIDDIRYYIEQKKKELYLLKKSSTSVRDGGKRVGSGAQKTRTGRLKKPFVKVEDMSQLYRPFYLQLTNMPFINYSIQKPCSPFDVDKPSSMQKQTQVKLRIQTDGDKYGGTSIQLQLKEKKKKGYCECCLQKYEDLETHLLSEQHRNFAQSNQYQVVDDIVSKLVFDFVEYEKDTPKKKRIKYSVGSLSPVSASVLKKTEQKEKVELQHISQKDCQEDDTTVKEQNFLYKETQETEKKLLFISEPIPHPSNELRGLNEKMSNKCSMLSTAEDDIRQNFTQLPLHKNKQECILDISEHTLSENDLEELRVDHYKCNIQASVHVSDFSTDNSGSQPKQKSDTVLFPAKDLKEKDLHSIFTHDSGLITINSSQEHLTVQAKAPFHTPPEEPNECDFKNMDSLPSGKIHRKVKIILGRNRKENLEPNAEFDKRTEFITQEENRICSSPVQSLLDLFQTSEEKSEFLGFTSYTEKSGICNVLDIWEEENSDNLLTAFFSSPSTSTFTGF
Experimental: The inhibiting activity of putative Cdc7 inhibitors and the potency of selected compounds is determined through a method of assay based on the use of Dowex resin capture technology. The assay consists of the transfer of radioactivity labeled phosphate moiety by the kinase to an acceptor substrate. The resulting 33P-labeled product is separated from unreacted tracer, transferred into a scintillation cocktail and light emitted is measured in a scintillation counter.
Inhibition Assay of Cdc7/Dbf4 Activity
The inhibition assay of Cdc7/Dbf4 activity is performed according to the following protocol. The MCM2 substrate is trans-phosphorylated by the Cdc7/Dbf4 complex in the presence of ATP traced with γ^33-ATP. The reaction is stopped by addition of Dowex resin in the presence of formic acid. Dowex resin particles capture unreacted γ^33-ATP and drag it to the bottom of the well while ^33p phosphorylated MCM2 substrate remains in solution. The supernatant is collected, transferred into Optiplate plates and the extent of substrate phosphorylation is evaluated by β counting.
The inhibition assay of Cdc7/Dbf4 activity was performed in 96 wells plate according to the following protocol.
To each well of the plate were added: • 10 μl test compound (10 increasing concentrations in the nM to μM range to generate a dose-response curve). The solvent for test compounds contained 3% DMSO. (final concentration 1%) • 10 μl substrate MCM2 (6 μM final concentration), a mixture of cold ATP (2 μM final concentration) and radioactive ATP (1/5000 molar ratio with cold ATP). • 10 μl enzyme (Cdc7/Dbf4, 2 nM final concentration) that started the reaction. The buffer of the reaction consisted in 50 mM HEPES pH 7.9 containing 15 mM MgCl2, 2 mM DTT, 3 μM NaVO3, 2 mM glycerophosphate and 0.2 mg/ml BSA.
After incubation for 60 minutes at room temperature, the reaction was stopped by adding to each well 150 μl of Dowex resin in the presence of 150 mM formic acid. After another 60 min incubation, 50 μL of suspension were withdrawn and transferred into 96-well OPTIPLATEs containing 150 μl of MicroScint 40 (Packard); after 5-10 minutes shaking the plates were read for 1 min in a Packard TOP-Count radioactivity reader.
(§1) IC50 determination: inhibitors were tested at different concentrations ranging from 0.0005 to 10 μM. Experimental data were analyzed by the computer program Assay Explorer using the four parameter logistic equation: y=bottom+(top−bottom)/(1+10^((log|C50−x)*slope)) where x is the logarithm of the inhibitor concentration, y is the response; y starts at bottom and goes to top with a sigmoid shape.

cdk2/Cyclin A = cdk2/Cyclin A (Homo sapiens, UniProt P24941); test: Inhibition assay of cdk2/Cyclin A activity (SPA, biotinylated histone H1); assay type: biochemical; conditions: histone H1 4 μM, ATP 10 μM, Cyclin A/CDK2 1.1 nM, 60 min at room temperature
Experimental: The inhibiting activity of putative cdk/cyclin inhibitors and the potency of selected compounds may be determined through a method of assay based on the use of the SPA technology (Amersham Pharmacia Biotech).
The assay consists of the transfer of radioactivity labelled phosphate moiety by the kinase to a biotinylated substrate. The resulting 33P-labelled biotinylated product is allowed to bind to streptavidin-coated SPA beads (biotin capacity 130 pmol/mg), and light emitted was measured in a scintillation counter.
Inhibition Assay of cdk2/Cyclin A Activity
Kinase reaction: 4 μM in house biotinylated histone H1 (Sigma # H-5505) substrate, 10 μM ATP (0.1 microCi P^33γ-ATP), 1.1 nM Cyclin A/CDK2 complex, inhibitor in a final volume of 30 μl buffer (TRIS HCl 10 mM pH 7.5, MgCl2 10 mM, DTT 7.5 mM+0.2 mg/ml BSA) were added to each well of a 96 U bottom. After incubation for 60 min at room temperature, the reaction was stopped by addition of 100 μl PBS buffer containing 32 mM EDTA, 500 μM cold ATP, 0.1% Triton X100 and 10 mg/ml streptavidin coated SPA beads. After 20 min incubation, 110 μL of suspension were withdrawn and transferred into 96-well OPTIPLATEs containing 100 μl of 5M CsCl. After 4 hours, the plates were read for 2 min in a Packard TOP-Count radioactivity reader.
as §1, with “0.0015” for “0.0005”, “GraphPad Prizm” for “Assay Explorer”, “y=bottom+(top−bottom)/(1+10^((loglC50−x)*slope))” for “y=bottom+(top−bottom)/(1+10^((log|C50−x)*slope))”

IC50 (Cdc7/Dbf4)	IC50 (cdk2/Cyclin A) [nM]	SMILES
8 nM		CC1CNC(=O)c2cc(-c3ccnc(N)n3)[nH]c21 (racemic) [2-(2-aminopyrimidin-4-yl)-7-methyl-1,5,6,7-tetrahydro-4H-pyrrolo[3,2-c]pyridin-4-one]
4 nM		CC1CNC(=O)c2cc(-c3ccnc(N)n3)[nH]c21 (single isomer, unassigned) [(7R or 7S)-2-(2-aminopyrimidin-4-yl)-7-methyl-1,5,6,7-tetrahydro-4H-pyrrolo[3,2-c]pyridin-4-on]
5 nM		CC1CNC(=O)c2cc(-c3ccnc(N)n3)[nH]c21 (single isomer, unassigned) [(7R or 7S)-2-(2-aminopyrimidin-4-yl)-7-methyl-1,5,6,7-tetrahydro-4H-pyrrolo[3,2-c]pyridin-4-one]
11 nM		Nc1nccc(-c2cc3c([nH]2)CCNC3=O)n1 [2-(2-aminopyrimidin-4-yl)-1,5,6,7-tetrahydro-4H-pyrrolo[3,2-c]pyridin-4-one hydrochloride]
4 nM		Nc1nccc(-c2[nH]c3c(c2I)C(=O)NCC3)n1 [2-(2-aminopyrimidin-4-yl)-3-iodo-1,5,6,7-tetrahydro-4H-pyrrolo[3,2-c]pyridin-4-one]
32 nM		CC1(C)Cc2[nH]c(-c3ccnc(N)n3)cc2C(=O)N1 [2-(2-aminopyrimidin-4-yl)-6,6-dimethyl-1,5,6,7-tetrahydro-4H-pyrrolo[3,2-c]pyridin-4-one hydrochloride]
4 nM		CC(C)CC1Cc2[nH]c(-c3ccnc(N)n3)cc2C(=O)N1 (stereo not shown) [2-(2-aminopyrimidin-4-yl)-6-isobutyl-1,5,6,7-tetrahydro-4H-pyrrolo[3,2-c]pyridin-4-one]
9 nM		CC(C)C1Cc2[nH]c(-c3ccnc(N)n3)cc2C(=O)N1 (stereo not shown) [2-(2-aminopyrimidin-4-yl)-6-isopropyl-1,5,6,7-tetrahydro-4H-pyrrolo[3,2-c]pyridin-4-one]
26 nM		CC1Cc2[nH]c(-c3ccnc(N)n3)cc2C(=O)N1 (stereo not shown) [2-(2-aminopyrimidin-4-yl)-6-methyl-1,5,6,7-tetrahydro-4H-pyrrolo[3,2-c]pyridin-4-one]
7 nM		CCC1(CC)CNC(=O)c2cc(-c3ccnc(N)n3)[nH]c21 [2-(2-aminopyrimidin-4-yl)-7,7-diethyl-1,5,6,7-tetrahydro-4H-pyrrolo[3,2-c]pyridin-4-one]
2 nM		CC1(C)CNC(=O)c2cc(-c3ccnc(N)n3)[nH]c21 [2-(2-aminopyrimidin-4-yl)-7,7-dimethyl-1,5,6,7-tetrahydro-4H-pyrrolo[3,2-c]pyridin-4-one]
8 nM		CC(C)C1CNC(=O)c2cc(-c3ccnc(N)n3)[nH]c21 (stereo not shown) [2-(2-aminopyrimidin-4-yl)-7-isopropyl-1,5,6,7-tetrahydro-4H-pyrrolo[3,2-c]pyridin-4-one]
15 nM		Nc1nccc(-c2cc3c([nH]2)C(c2ccccc2)CNC3=O)n1 (stereo not shown) [2-(2-aminopyrimidin-4-yl)-7-phenyl-1,5,6,7-tetrahydro-4H-pyrrolo[3,2-c]pyridin-4-one hydrochloride]
29 nM		O=C1NCC(c2ccccc2)c2[nH]c(-c3ccnc(Nc4ccccc4)n3)cc21 (stereo not shown) [2-(2-anilinopyrimidin-4-yl)-7-phenyl-1,5,6,7-tetrahydro-4H-pyrrolo[3,2-c]pyridin-4-one hydrochloride]
7 nM		O=C1NCCc2[nH]c(-c3ccnc(Nc4ccccc4)n3)cc21 [2-(2-phenylaminopyrimidin-4-yl)-1,5,6,7-tetrahydro-4H-pyrrolo[3,2-c]pyridin-4-one hydrochloride]
200 nM		O=C1NCCc2[nH]c(-c3ncnc4[nH]cnc34)cc21 [2-(9H-purin-6-yl)-1,5,6,7-tetrahydro-4H-pyrrolo[3,2-c]pyridin-4-one hydrochloride]
270 nM		O=C1NCCc2[nH]c(-c3ccnc(NCc4ccccc4)n3)cc21 [2-[2-(benzylamino)pyrimidin-4-yl]-1,5,6,7-tetrahydro-4H-pyrrolo[3,2-c]pyridin-4-one]
	50	CC(C)CNc1nccc(-c2cc3c([nH]2)CCNC3=O)n1 [2-[2-(isobutylamino)pyrimidin-4-yl]-1,5,6,7-tetrahydro-4H-pyrrolo[3,2-c]pyridin-4-one]
310 nM	35	CCCNc1nccc(-c2cc3c([nH]2)CCNC3=O)n1 [2-[2-(propylamino)pyrimidin-4-yl]-1,5,6,7-tetrahydro4H-pyrrolo[3,2-c]pyridin-4-one]
19 nM		O=C1NCCc2[nH]c(-c3ccncn3)cc21 [2-pyrimidin-4-yl-1,5,6,7-tetrahydro-4H-pyrrolo[3,2-c]pyridin-4-one hydrochloride]
74 nM and 87 nM	80	O=C1NCCc2[nH]c(-c3ccnc(NCc4ccco4)n3)cc21 [2-{2-[(2-furylmethyl)amino]pyrimidin-4-yl}-1,5,6,7-tetrahydro-4H-pyrrolo[3,2-c]pyridin-4-one]
680 nM	220	O=C1NCCc2[nH]c(-c3ccnc(NCC4CCCCC4)n3)cc21 [2-{2-[(cyclohexylmethyl)amino]pyrimidin-4-yl}-1,5,6,7-tetrahydro-4H-pyrrolo[3,2-c]pyridin-4-one]
90 nM		O=C1NCC(c2ccccc2)c2[nH]c(-c3ncnc4[nH]cnc34)cc21 (stereo not shown) [7-phenyl-2-(9H-purin-6-yl)-1,5,6,7-tetrahydro-4H-pyrrolo[3,2-c]pyridin-4-one hydrochloride]
32 nM		O=C1NCC(c2ccccc2)c2[nH]c(-c3ccncn3)cc21 (stereo not shown) [7-phenyl-2-pyrimidin-4-yl-1,5,6,7-tetrahydro-4H-pyrrolo[3,2-c]pyridin-4-one hydrochloride]
300 nM		O=C(Nc1nccc(-c2cc3c([nH]2)CCNC3=O)n1)c1ccccc1 [N-[4-(4-oxo-4,5,6,7-tetrahydro-1H-pyrrolo[3,2-c]pyridin-2-yl)pyrimidin-2-yl]benzamide]
300 nM	20	CC(=O)Nc1ccc(CNc2nccc(-c3cc4c([nH]3)CCNC4=O)n2)cc1 [N-[4-({[4-(4-oxo-4,5,6,7-tetrahydro-1H-pyrrolo[3,2-c]pyridin-2-yl)pyrimidin-2-yl]amino}methyl)phenyl]acetamide trifluoroacetate]
80 nM		CCOC(=O)Nc1nccc(-c2cc3c([nH]2)CCNC3=O)n1 [ethyl 4-(4-oxo-4,5,6,7-tetrahydro-1H-pyrrolo[3,2-c]pyridin-2-yl)pyrimidin-2-ylcarbamate]
